Data: paper PMC4138103 (PLoS ONE, 2014)
Where two headings read alike, the source gives them in different places.

Tested on: Sprague-Dawley rats
Assay: Hematology
Type: in vivo, Rattus norvegicus
Set-up: HCT, Hematocrit: unit not given here
Details: for Emax: Rattus norvegicus; for Basophils / Eosinophils / HB, Hemoglobin / HCT, Hematocrit / Lymphocytes / MCH, Mean corpuscular hemoglobin / MCHC, Mean corpuscular hemoglobin concentration / MCV, Mean corpuscular volume / MPV, Mean platelet volume / Monocytes / Neutrophils / PDW, Platelet distribution width / PLT, Platelet count / RBC, Red cell count / WBC, Leukocyte total count: group mean, N=5
Description: Basic blood picture analysis was carried out using Advia 120 analyzer (Bayer, later Siemens Diagnostic Division, Dublin, Ireland). This analysis includes red cell count (RBC), hemoglobin (HB), hematocrit (HCT), platelet count (PLT), leukocyte total count (WBC) and differential count as well as the calculated red cell and platelet parameters mean corpuscular volume (MCV), mean corpuscular hemoglobin (MCH), mean corpuscular hemoglobin concentration (MCHC), red cell distribution width - standard deviation (RDW-SD), platelet distribution width (PDW) and mean platelet volume (MPV). Blood cell counting is based on isovolumetric sphering and fixing the cells, stains and light scattering. Visual leukocyte differential counting was done after May-Grünwald-Giemsa staining.
Data were also analyzed using the BMD method, which is based on dose-response modeling of the full data set using a nested family of exponential and Hill models. The analyses were done on data of males and females combined, using sex as a covariate. […] In that case, different Critical Effect Doses (CEDs) and CEDs at the lowest bound of the confidence interval (CED-L) were generated for each sex. If no difference between sexes is detected, a CED and CED-Ls for the combined data is generated. However, this was also done if the curve fits are close, and separate analyses for males and females were then performed manually. CEDs and CED-Ls were calculated at the predefined Critical Effect Size (CES) of 5% (EFSA standard) or 10%.

[1] = F, CES 5%, model E2, adipose tissue concentration based
[2] = F, CES 5%, model E3, adipose tissue concentration based
[3] = F, CES 10%, model E2, adipose tissue concentration based
[4] = F, CES 10%, model E3, adipose tissue concentration based
[5] = M, CES 5%, model E4, adipose tissue concentration based
[6] = M, CES 10%, model E4, adipose tissue concentration based
[7] = females, total dose 10 mg/kg bw

Clc1cc(Cl)c(-c2cc(Cl)c(Cl)c(Cl)c2Cl)cc1Cl [PCB 180, 2,2′,3′,4,4′,5,5′-heptachlorobiphenyl]
CED, Hematocrit [1]: 5430 µg/g lipid
CED, Hemoglobin [1]: 4840 µg/g lipid
CED, Red blood cell count [1]: 4170 µg/g lipid
CED-L, Hematocrit [1]: 4178 µg/g lipid
CED-L, Hemoglobin [1]: 3889 µg/g lipid
CED-L, Red blood cell count [1]: 3327 µg/g lipid
CED, Red cell distribution width - SD [2]: 8370 µg/g lipid
CED-L, Red cell distribution width - SD [2]: 5756 µg/g lipid
CED, Hematocrit [3]: 11100 µg/g lipid
CED, Hemoglobin [3]: 9930 µg/g lipid
CED, Red blood cell count [3]: 8560 µg/g lipid
CED-L, Hematocrit [3]: 8582 µg/g lipid
CED-L, Hemoglobin [3]: 7989 µg/g lipid
CED-L, Red blood cell count [3]: 6834 µg/g lipid
CED, Red cell distribution width - SD [4]: 10700 µg/g lipid
CED-L, Red cell distribution width - SD [4]: 9281 µg/g lipid
CED, Hematocrit [5]: 601 µg/g lipid
CED, Hemoglobin [5]: 872 µg/g lipid
CED, Platelet count [5]: 156 µg/g lipid
CED, Red blood cell count [5]: 598 µg/g lipid
CED-L, Hematocrit [5]: 247 µg/g lipid
CED-L, Hemoglobin [5]: 227 µg/g lipid
CED-L, Platelet count [5]: 36.4 µg/g lipid
CED-L, Red blood cell count [5]: 337 µg/g lipid
CED, Hematocrit [6]: 2090 µg/g lipid
CED, Platelet count [6]: 539 µg/g lipid
CED, Red blood cell count [6]: 1890 µg/g lipid
Emax (Erythrocyte, F, model E2, controls vs high dose according to the fitted model, read-out: Maximum response, Red blood cell count): -13%
Emax (Erythrocyte, females, controls vs high dose, fitted model, read-out: Red blood cell count, Maximum response): -12.8%
Emax (Erythrocyte, males, controls vs high dose, fitted model, read-out: Red blood cell count, Maximum response): -12.5%
Emax (Erythrocyte, model E4, controls vs high dose according to the fitted model, read-out: Maximum response, Red blood cell count): -12.4%
Emax (F, model E2, controls vs high dose according to the fitted model, read-out: Maximum response, Hematocrit): -10.1%
Emax (F, model E2, controls vs high dose according to the fitted model, read-out: Maximum response, Hemoglobin): -11.3%
Emax (F, model E3, controls vs high dose according to the fitted model, read-out: Maximum response, Red cell distribution width - SD): 11.1%
Emax (Platelet, males, controls vs high dose, fitted model, read-out: Platelet count, Maximum response): 12%
Emax (Platelet, model E4, controls vs high dose according to the fitted model, read-out: Maximum response, Platelet count): 12%
Emax (females, controls vs high dose, fitted model, read-out: Hematocrit, Maximum response): -10%
Emax (females, controls vs high dose, fitted model, read-out: Hemoglobin, Maximum response): -11.1%
Emax (females, controls vs high dose, fitted model, read-out: Red cell distribution width - SD, Maximum response): 11.5%
Emax (males, controls vs high dose, fitted model, read-out: Hematocrit, Maximum response): -11.8%
Emax (males, controls vs high dose, fitted model, read-out: Hemoglobin, Maximum response): -8.6%
Emax (model E4, controls vs high dose according to the fitted model, read-out: Maximum response, Hematocrit): -11.7%
Emax (model E4, controls vs high dose according to the fitted model, read-out: Maximum response, Hemoglobin): -8.59%
Basophils (females, total dose 3 mg/kg bw): 0.0%
Eosinophils (females, total dose 3 mg/kg bw): 1.2%
HB, Hemoglobin (females, total dose 3 mg/kg bw): 165 g/L
HCT, Hematocrit (females, total dose 3 mg/kg bw): 0.44
Lymphocytes (females, total dose 3 mg/kg bw): 88.4%
MCH, Mean corpuscular hemoglobin (females, total dose 3 mg/kg bw): 23.1 pg
MCHC, Mean corpuscular hemoglobin concentration (females, total dose 3 mg/kg bw): 371 g/L
MCV, Mean corpuscular volume (females, total dose 3 mg/kg bw): 62.3 fL
MPV, Mean platelet volume (females, total dose 3 mg/kg bw): 6.74 fL
Monocytes (females, total dose 3 mg/kg bw): 2.6%
Neutrophils (females, total dose 3 mg/kg bw): 7.8%
PDW, Platelet distribution width (females, total dose 3 mg/kg bw): 7.26 fL
PLT, Platelet count (females, total dose 3 mg/kg bw): 8.17e+11 L⁻¹
RBC, Red cell count (females, total dose 3 mg/kg bw): 7.15e+12 L⁻¹
WBC, Leukocyte total count (females, total dose 3 mg/kg bw): 1.422e+10 L⁻¹
Basophils [7]: 0.0%
Eosinophils [7]: 0.2%
HB, Hemoglobin [7]: 166 g/L
HCT, Hematocrit [7]: 0.45
Lymphocytes [7]: 92.0%
MCH, Mean corpuscular hemoglobin [7]: 23.0 pg
MCHC, Mean corpuscular hemoglobin concentration [7]: 372 g/L
MCV, Mean corpuscular volume [7]: 61.8 fL
MPV, Mean platelet volume [7]: 6.72 fL
Monocytes [7]: 2%
Neutrophils [7]: 5.8%
PDW, Platelet distribution width [7]: 7.20 fL
PLT, Platelet count [7]: 8.05e+11 L⁻¹
RBC, Red cell count [7]: 7.23e+12 L⁻¹
WBC, Leukocyte total count [7]: 1.276e+10 L⁻¹
